Source: the supplement of paper PMC11061612

Experiments:
Assay in all cases: Bliss excess, mean over the matrix (fraction); higher = more synergy
[1] = system: A3-KAW (B-Cell Non-Hodgkin's Lymphoma)
Summary of the method: (§1)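 Cell lines grown in DMEM/F12 or RPMI with 10% FBS were plated in 1536-well plates and held 24 hours at 37°C, 5% CO2 before 72 hours of exposure to two-drug dose matrices, with DMSO typically at 0.2%. CellTiter-Glo 2.0 luminescence gave viability, which was converted to inhibition. Vehicle wells were set to 0 and blank wells to 1. Combination Emax is the second-highest inhibition in the matrix, and Bliss excess is the observed combination effect minus the expected EA + EB − EA·EB, where EA and EB are the single-agent effects.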

[2] = system: A549 (Lung Adenocarcinoma)
Summary of the method: as §1

[3] = system: CAL-29 (Bladder Carcinoma)
Summary of the method: as §1

[4] = system: CAPAN-2 (Pancreatic Carcinoma)
Summary of the method: as §1

[5] = system: COLO-320-HSR (Colorectal Carcinoma)
Summary of the method: as §1

[6] = system: COR-L311 (Small Cell Lung Carcinoma)
Summary of the method: as §1

[7] = system: ECC10 (Gastric Carcinoma)
Summary of the method: as §1

FU97 (Gastric Carcinoma) = system: FU97 (Gastric Carcinoma)
Summary of the method: as §1

Hs-445 (Non-Cancerous) = system: Hs-445 (Non-Cancerous)
Summary of the method: as §1

IGR-37 (Melanoma) = system: IGR-37 (Melanoma)
Summary of the method: as §1

[8] = system: JSC-1 (B-Cell Non-Hodgkin's Lymphoma)
Summary of the method: as §1

[9] = system: MDST8 (Colorectal Carcinoma)
Summary of the method: as §1

[10] = system: NCI-H1581 (Non-Small Cell Lung Carcinoma)
Summary of the method: as §1

[11] = system: NCI-H1650 (Lung Adenocarcinoma)
Summary of the method: as §1

[12] = system: NCI-H1693 (Lung Adenocarcinoma)
Summary of the method: as §1

[13] = system: NCI-H2066 (Squamous Cell Lung Carcinoma)
Summary of the method: as §1

[14] = system: NCI-H64 (Small Cell Lung Carcinoma)
Summary of the method: as §1

[15] = system: ONS-76 (Other Solid Carcinomas)
Summary of the method: as §1

PA-1 (Ovarian Carcinoma) = system: PA-1 (Ovarian Carcinoma)
Summary of the method: as §1

[16] = system: SK-MG-1 (Low Grade Glioma)
Summary of the method: as §1

| SMILES | Bliss excess [1] | Bliss excess [2] | Bliss excess [3] | Bliss excess [4] | Bliss excess [5] | Bliss excess [6] | Bliss excess [7] | Bliss excess (FU97 (Gastric Carcinoma)) | Bliss excess (Hs-445 (Non-Cancerous)) | Bliss excess (IGR-37 (Melanoma)) | Bliss excess [8] | Bliss excess [9] | Bliss excess [10] | Bliss excess [11] | Bliss excess [12] | Bliss excess [13] | Bliss excess [14] | Bliss excess [15] | Bliss excess (PA-1 (Ovarian Carcinoma)) | Bliss excess [16] |
| --- | --- | --- | --- | --- | --- | --- | --- | --- | --- | --- | --- | --- | --- | --- | --- | --- | --- | --- | --- | --- |
| Cc1cc2ncnn2cc1Nc1ncc2c(n1)n(C1CCOCC1)c(=O)n2C [AZD7648] + C=CCn1c(=O)c2cnc(Nc3ccc(N4CCN(C)CC4)cc3)nc2n1-c1cccc(C(C)(C)O)n1 [AZD1775] (first compound max 10 µM, partner max 1 µM) | 0.0521 | -0.0718 | -0.0241 | 0.0132 | -0.0082 | -0.119 | 0.0498 | 0.0004 | -0.0501 | -0.0007 | -0.0166 | 0.0177 | -0.0334 | 0.0097 | 0.0055 | -0.105 | -0.0585 | -0.0046 | -0.0024 | 0.009 |
| Cc1cc2ncnn2cc1Nc1ncc2c(n1)n(C1CCOCC1)c(=O)n2C [AZD7648] + CN(C)CCCOc1ccc(-c2ccc3ncc4c(c3c2)n(C2CCOCC2)c(=O)n4C)cn1 [AZD0156] (first compound max 10 µM, 7x7, partner max 1 µM) | 0.162 | -0.0192 | -0.0282 | -0.0168 | 0.0391 | -0.054 | 0.0025 | -0.0915 | -0.0388 | 0.0285 | 0.0412 | 0.0012 | 0.0088 | -0.0133 | 0.0173 | -0.026 | -0.0367 | -0.0014 | -0.0117 | 0.0047 |
| CN(CCO)CC[C@H](CSc1ccccc1)Nc1ccc(S(=O)(=O)NC(=O)c2ccc(N3CCC([C@@H](O)c4ccccc4-c4ccc(Cl)cc4)CC3)cc2)cc1S(=O)(=O)C(F)(F)F [AZD4320] + C[C@@H](Nc1cc(F)cc(F)c1)c1cc(C(=O)N(C)C)cc2c(=O)cc(N3CCOCC3)oc12 [AZD8186] (first compound max 1 µM, 7x7, partner max 3 µM) | 0.0229 | -0.0964 | -0.0215 | -0.0099 | 0.0504 | 0.0588 | 0.0229 | 0.0471 | 0.0667 | 0.029 | 0.0639 | 0.025 | 0.0052 | 0.0346 | 0.0468 | -0.0671 | -0.0372 | 0.0221 | 0.0411 | -0.0189 |
| Cc1cc2ncnn2cc1Nc1ncc2c(n1)n(C1CCOCC1)c(=O)n2C [AZD7648] + C[C@@H]1COCCN1C2=NC(=NC(=C2)C3(CC3)[S@](=N)(=O)C)C4=C5C=CNC5=NC=C4 [AZD6738] (first compound max 10 µM, 7x7, partner max 10 µM) | -0.034 | -0.0282 | -0.012 | 0.022 | -0.0398 | -0.016 | 0.0582 | -0.0017 | 0.001 | -0.0228 | 0.0038 | -0.0085 | 0.0217 | 0.0308 | 0.0177 | 0.025 | -0.0003 | -0.0282 | -0.0509 | 0.0011 |
| COc1nnc2ccc(N3CCC(c4ccc(OCCN5CCN(C)C(=O)[C@H]5C)cc4)CC3)nn12 [AZD5153] + C=CCn1c(=O)c2cnc(Nc3ccc(N4CCN(C)CC4)cc3)nc2n1-c1cccc(C(C)(C)O)n1 [AZD1775] (first compound max 1 µM, partner max 1 µM) | -0.0093 | -0.0902 | -0.0699 | -0.0202 | -0.0801 | -0.06 | -0.0116 | 0.0072 | -0.192 | -0.0569 | -0.123 | -0.0455 | -0.0029 | -0.015 | -0.0888 | -0.0503 | -0.0114 | -0.0505 | -0.043 | -0.0823 |
| CC(=O)c1c(C)c2cnc(Nc3ccc(N4CCNCC4)cn3)nc2n(C2CCCC2)c1=O [Palbociclib] + Cn1cnc2c(F)c(Nc3ccc(Br)cc3Cl)c(C(=O)NOCCO)cc21 [Selumetinib] (first compound max 10 µM, 7x7, partner max 10 µM) | 0.182 | -0.0413 | 0.0021 | -0.0199 | -0.0316 | -0.0334 | -0.0111 | 0.0707 | -0.0852 | 0.0324 | 0.0842 | -0.031 | 0.0466 | -0.0775 | -0.0306 | -0.0344 | -0.014 | 0.0132 | -0.0312 | 0.0489 |
| NC1(C(=O)N[C@@H](CCO)c2ccc(Cl)cc2)CCN(c2ncnc3[nH]ccc23)CC1 [Capivasertib] + C[C@@H]1COCCN1C2=NC(=NC(=C2)C3(CC3)[S@](=N)(=O)C)C4=C5C=CNC5=NC=C4 [AZD6738] (first compound max 10 µM, 7x7, partner max 10 µM) | -0.0165 | -0.0414 | -0.069 | -0.0194 | -0.0883 | -0.0213 | -0.0163 | -0.0176 | -0.0531 | 0.0138 | 0.0036 | -0.0277 | -0.0363 | -0.0754 | -0.0526 | -0.0782 | -0.0591 | -0.0636 | -0.0938 | -0.034 |
| CN(CCO)CC[C@H](CSc1ccccc1)Nc1ccc(S(=O)(=O)NC(=O)c2ccc(N3CCC([C@@H](O)c4ccccc4-c4ccc(Cl)cc4)CC3)cc2)cc1S(=O)(=O)C(F)(F)F [AZD4320] + C1CN(CCC1(C(=O)N[C@@H](CCO)C2=CC=C(C=C2)Cl)N)C3=NC=NC4=C3C=CN4 [Capivasertib] (first compound max 1 µM, 7x7, partner max 3 µM) | -0.0211 | -0.0589 | -0.0397 | -0.0534 | -0.0136 | 0.0397 | -0.0312 | 0.0069 | 0.0455 | -0.0389 | -0.0187 | -0.0482 | -0.0143 | -0.0427 | -0.0456 | 0.0311 | -0.028 | -0.0469 | 0.0592 | -0.048 |
| CC(=O)c1c(C)c2cnc(Nc3ccc(N4CCNCC4)cn3)nc2n(C2CCCC2)c1=O [Palbociclib] + Cc1c2c(nn1C)CSCc1cc(n(C)n1)CSc1cc(c3ccccc3c1)OCCCc1c(C(=O)O)n(C)c3c-2c(Cl)ccc13 [AZD5991] (first compound max 10 µM, 7x7, partner max 1 µM) | -0.0158 | 0.0338 | -0.0532 | -0.0593 | -0.0746 | -0.0139 | 0.0435 | 0.0142 | -0.0598 | -0.0335 | -0.0567 | -0.0134 | -0.0173 | -0.0409 | -0.0168 | -0.0361 | -0.0049 | -0.0372 | 0.0052 | -0.0698 |
| C[C@@H]1COCCN1c1cc(C2([S@](C)(=N)=O)CC2)nc(-c2ccnc3[nH]ccc23)n1 [AZD6738] + O=C(c1cc(Cc2n[nH]c(=O)c3ccccc23)ccc1F)N1CCN(C(=O)C2CC2)CC1 [Olaparib] (first compound max 10 µM, 7x7, partner max 10 µM) | -0.0085 | 0.0273 | -0.0405 | -0.0255 | -0.0357 | -0.0507 | 0.0666 | 0.023 | -0.0067 | -0.0475 | -0.0254 | 0.0052 | 0.0166 | -0.0152 | -0.0082 | -0.0682 | -0.0686 | -0.0284 | 0.0046 | 0.0121 |
| COc1cccc(OCCCN)c1-c1cc(Nc2cnc(C#N)cn2)n[nH]1 [Prexasertib] + O=C(c1cc(Cc2n[nH]c(=O)c3ccccc23)ccc1F)N1CCN(C(=O)C2CC2)CC1 [Olaparib] (first compound max 1 µM, 7x7, partner max 10 µM) | -0.0146 | -0.0109 | -0.185 | -0.169 | -0.131 | -0.101 | -0.0685 | -0.0288 | -0.0358 | -0.0327 | -0.0179 | -0.0484 | 0.0257 | -0.0152 | -0.1 | -0.0492 | -0.0438 | -0.123 | 0.0083 | 0.0026 |
| CN(C)CCCOc1ccc(-c2ccc3ncc4c(c3c2)n(C2CCOCC2)c(=O)n4C)cn1 [AZD0156] + O=C(c1cc(Cc2n[nH]c(=O)c3ccccc23)ccc1F)N1CCN(C(=O)C2CC2)CC1 [Olaparib] (first compound max 3 µM, partner max 3 µM) | 0.276 | 0.0069 | 0.0098 | -0.0535 | 0.104 | 0.092 | 0.0522 | -0.0154 | -0.0211 | -0.0103 | 0.171 | 0.0269 | 0.0465 | -0.0462 | -0.0439 | 0.0139 | -0.0106 | 0.0366 | 0.122 | 0.0333 |
| CN(C)CCCOc1ccc(-c2ccc3ncc4c(c3c2)n(C2CCOCC2)c(=O)n4C)cn1 [AZD0156] + C=CCn1c(=O)c2cnc(Nc3ccc(N4CCN(C)CC4)cc3)nc2n1-c1cccc(C(C)(C)O)n1 [AZD1775] (first compound max 1 µM, partner max 1 µM) | 0.0707 | -0.0807 | -0.0301 | -0.0709 | -0.0454 | -0.115 | -0.0379 | -0.0101 | 0.0015 | -0.0159 | -0.0102 | -0.0358 | -0.0641 | -0.0451 | -0.0242 | -0.07 | -0.0931 | -0.0487 | -0.0546 | 0.0174 |
